# Assay results reported in the supplement of paper PMC11451515.
# How the values were obtained:
# Test in all cases: AUC of viability dose-response curve (% viability x log10 dose units); higher = less sensitive
# Settings in all cases: 48 h
# [1] = test system: NOMO1
# In short: (§1)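 Medium-adapted leukemia cells in 1536-well plates, at 500 or 1000 cells/well, were incubated for 48 h at 37°C with library compounds in DMSO at 11 threefold doses from 47 μM to 0.79 nM. CellTiter-Glo One luminescence normalised per plate to DMSO and cell-free wells was fitted with a four-parameter log-logistic model over log10 doses. Area under the curve was integrated from this fit by trapezoidal rule, with curves beyond full viability scaled and failed quality-control curves removed.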
# [2] = test system: SEM cells
# In short: as §1
# [3] = test system: P12-Ichikawa
# In short: as §1
# [4] = RPMI 5 mM glucose + 10% dialyzed FBS
SMILES,AUC of viability dose-response curve ([1]; HPLM + 10% dialyzed FBS),AUC of viability dose-response curve ([1]; RPMI 5 mM glucose + 10% FBS),"AUC of viability dose-response curve [1, 4]",AUC of viability dose-response curve ([2]; HPLM + 10% dialyzed FBS),AUC of viability dose-response curve ([2]; RPMI 5 mM glucose + 10% FBS),"AUC of viability dose-response curve [2, 4]",AUC of viability dose-response curve ([3]; HPLM + 10% dialyzed FBS),AUC of viability dose-response curve ([3]; RPMI 5 mM glucose + 10% FBS),"AUC of viability dose-response curve [3, 4]"
CN(CC(=O)N(Cc1ccc(C2CCCCC2)cc1)c1ccc(C(=O)O)c(O)c1)[S+](=O)([O-])c1c(F)c(F)c(F)c(F)c1F,447,408,440,432,404,405,440,462,421
NC(=O)N1CCC(CC(=O)N2CCC([C@H]3c4ncc(Br)cc4CCc4cc(Cl)cc(Br)c43)CC2)CC1,442,439,432,363,355,395,413,395,410
COC(=O)CCC1=C(C)C2=CC3=NC(=CC4=C(C)C(=C([NH]4)C=C\5N=C(C=C1[NH]2)\C(=C5C)CCC(O)=O)C=C)\C6=C\C=C(/[C@@H](C(=O)OC)[C@@]36C)C(=O)OC,393,433,397,428,441,473,469,450,457
CC[C@H](CO)Nc1nc(NCc2ccccc2)c2ncn(C(C)C)c2n1,432,405,427,438,467,440,432,428,428
Cn1cnc(N)c2ncnc1-2,375,406,398,367,326,362,396,395,399
O=c1oc2cc(O)ccc2s1,439,448,467,462,447,453,466,446,454
CCCC[S+](=N)([O-])CCC(N)C(=O)O (stereo unspecified),441,462,461,459,462,458,453,469,465
COCC(=O)NC/C=C/c1ccc2ncnc(Nc3ccc(Oc4ccc(C)nc4)c(C)c3)c2c1,329,372,384,430,460,412,464,437,436
CC1(C)[C@@H](O)CC[C@@]2(C)[C@H]1CC[C@]3(C)[C@@H]2C(=O)\C=C/4[C@@H]5C[C@](C)(CC[C@]5(C)CC[C@@]34C)C(O)=O,465,448,460,468,470,477,464,468,461
CCOc1cc(C(=O)Nc2ccc(Cl)c(-c3nc4ccccc4[nH]3)c2)cc(OCC)c1OCC,475,410,431,378,392,371,431,418,387
C[C@@H]1CC[C@@]2(CC[C@]3(C)\C(=C/C[C@@H]4[C@@]5(C)C[C@@H](O)[C@H](O)[C@@](C)(CO)[C@@H]5CC[C@@]34C)[C@@H]2[C@H]1C)C(O)=O,446,445,468,385,455,295,468,472,460
Cc1nc(-c2ccc(-c3ccc(C(=O)N4CCc5cc6c(cc54)C4(CCN(C)CC4)CO6)cc3)c(C)c2)no1,454,477,449,420,467,439,464,460,447
COc1cccc(OC)c1-c1cc(C(=O)NC2(C(=O)O)C3CC4CC(C3)CC2C4)nn1-c1ccnc2cc(Cl)ccc12 (stereo unspecified),447,473,455,467,467,461,456,472,454
CN(C[C@@H]1COCCO1)[S+]([O-])(=O)NC2=CC3=C(C=C2)\C=C/C4=C(C=C(C=N4)C5=C[N](C)N=C5)C3=O,324,371,355,314,301,292,379,374,357
O=C1\C=C(OC2=C(C=CC=C12)C3=CC=CC4=C3SC5=C4C=CC=C5)\N6CCOCC6,474,464,467,446,425,432,471,456,469
CCN1\C=C(C(O)=O)/C(=O)C2=C1C(=C(N3CCNC(C)C3)C(=C2)F)F (stereo unspecified),458,471,452,467,471,469,462,457,461
O=C(Nc1cccnc1)N1CCC(Cc2cccc(Oc3ccc(C(F)(F)F)cn3)c2)CC1,405,427,425,337,299,303,361,346,344
C[C@]12CC[C@H]3[C@@H](CC[C@@]45O[C@@H]4C(O)=C(C#N)C[C@]35C)[C@@H]1CC[C@@H]2O,457,458,456,446,363,416,454,454,454
O=C(O)c1cccnc1,369,402,385,330,360,356,408,426,403
COc1cccc(N(C)C(=S)Oc2ccc3c(c2)CCCC3)n1,465,441,444,389,445,452,469,470,455
CCCCN1CCC(CNC(=O)c2c3n(c4ccccc24)CCCO3)CC1,474,467,470,431,474,462,461,459,465
COc1cc(C[C@@H](CO)[C@H](CO)Cc2ccc(O)c(OC)c2)ccc1O,467,456,476,452,444,455,464,457,439

SMILES,AUC of viability dose-response curve ([1]; HPLM + 10% dialyzed FBS),AUC of viability dose-response curve ([1]; RPMI 5 mM glucose + 10% FBS),"AUC of viability dose-response curve [1, 4]",AUC of viability dose-response curve ([2]; HPLM + 10% dialyzed FBS),AUC of viability dose-response curve ([2]; RPMI 5 mM glucose + 10% FBS),"AUC of viability dose-response curve [2, 4]",AUC of viability dose-response curve ([3]; HPLM + 10% dialyzed FBS),AUC of viability dose-response curve ([3]; RPMI 5 mM glucose + 10% FBS),"AUC of viability dose-response curve [3, 4]"
Cc1nnc(C(=O)NC(C)(C)c2nc(C(=O)NCc3ccc(F)cc3)c(O)c(=O)n2C)o1,428,449,470,473,449,465,448,454,465
C#CCC(Cc1cnc2nc(N)nc(N)c2n1)c1ccc(C(=O)N[C@@H](CCC(=O)O)C(=O)O)cc1 (stereo partly specified),307,380,265,274,358,232,227,250,228
COc1ccc(/C=C/C(=O)Nc2ccccc2C(=O)O)cc1OC,434,455,463,446,438,448,453,458,450
c1coc(CNc2ncnc3nc[nH]c23)c1,455,461,445,460,469,473,437,464,467
O=C(O)c1cccc(-c2noc(-c3ccccc3F)n2)c1,456,451,465,454,457,472,470,465,465
CN1CCN(CC1)C2=CC3=C([NH]C(=N3)C/4=C(\N)C5=C(F)C=CC=C5NC4=O)C=C2,418,440,433,161,178,152,420,395,399
CCn1c(C(=O)N(C2CC2)C2CC2)cc2c3c(ncn3C)c(Nc3cc(C)n(C)n3)nc21,472,473,464,454,446,435,466,473,467
COC(=O)[C@H](Cc1ccccc1)NC(=O)[C@@H](N)CC(=O)O,453,461,437,476,472,467,454,459,458
COc1cc2c(cc1OC)CN(CCc1ccc(NC(=O)c3cccc4c(=O)c5cccc(OC)c5[nH]c34)cc1)CC2,348,391,395,380,276,320,326,372,366
NC[C@H](O)c1ccc(O)c(O)c1,411,452,427,443,453,456,460,457,439
Cc1cccc(-c2[nH]c(C(C)(C)C)nc2-c2ccc3nccnc3c2)n1,460,430,455,444,383,443,459,458,424
O=C(NOCC1CC1)c1ccc(F)c(F)c1Nc1ccc(I)cc1Cl,362,389,382,455,440,434,447,429,450
c1cc2c(cc1[C@H]1OC[C@H]3[C@@H]1CO[C@@H]3c1ccc3c(c1)OCO3)OCO2,467,462,456,468,454,455,470,452,473
OC1CCC(CC1)N2\C=N/C3=C(C2=N)C(=C([N]3CC4=CC=CC=C4)C5=CC=CC=C5)C6=CC=CC=C6 (stereo unspecified),399,402,403,329,323,353,437,395,408
CC(C)(C)NCC(O)c1ccc(O)c(CO)c1 (stereo unspecified),388,420,399,474,461,470,438,431,442
Cc1ccc(C(=O)Nc2ccc([S+](=O)([O-])O)c3cc([S+](=O)([O-])O)cc([S+](=O)([O-])O)c23)cc1NC(=O)c1cccc(NC(=O)Nc2cccc(C(=O)Nc3cc(C(=O)Nc4ccc([S+](=O)([O-])O)c5cc([S+](=O)([O-])O)cc([S+](=O)([O-])O)c45)ccc3C)c2)c1,350,406,396,414,393,373,390,392,381
N#Cc1c(N(CC(=O)[O-])CC(=O)[O-])sc(C(=O)[O-])c1CC(=O)[O-].O.O.O.O.O.O.O.[Sr+2].[Sr+2],467,472,472,462,467,449,463,458,456
Nc1ncnc2nc(-c3ccc(N4CCOCC4)nc3)cc(-c3cccc(Br)c3)c12,463,475,460,470,471,470,460,439,467
CCOC(=O)c1c(CSc2ccccc2)n(C)c2cc(Br)c(O)c(CN(C)C)c12,471,461,450,463,459,469,464,461,464
CC(C)[C@H]1C(=O)N[C@H](CO)Cc2c[nH]c3cccc(c23)N1C,393,404,405,396,379,442,446,411,401
CCCCCN(C)CCC(O)(P(=O)([O-])O)P(=O)(O)O,421,439,423,357,384,367,447,426,409
COCCCC/C(=N\OCCN)c1ccc(C(F)(F)F)cc1,358,369,369,389,398,462,400,371,373
